Reference: patent US20210130316A1, “MORPHINAN DERIVATIVES AND COMPOSITIONS COMPRISING THE SAME FOR TREATING AUTOIMMUNE, IN[…] INFECTION RELATED DISORDERS” (TAIWANJ PHARMACEUTICALS CO., LTD, priority 2017, published 2021)

Legend:
HEK293 cells = test: Cell viability assay (MTT method); assay type: cell-based; settings: compound 20 μM, percentage of viable LPS-stimulated cells
Experimental: HEK 293 cells (2.5-5.0×10^4 cells/well) were seeded in 96-well plate for overnight and treated with different compounds for 16-24 hours. Cell growth was determined by MTh-based colorimetric assays. Viability of the test cells treated with vehicle (0.5% DMSO) only was defined as 100% viable. Survival of cells after treatment with DETDs was calculated using the following formula:
Viable cell number (%)=OD570 (treated cell culture)/OD570 (vehicle control)×100.
The ell viability assay was performed by the MTT method. Cells were incubated with 45 μl of 5 mg/ml MTT for 1 hour at 37° C., and 150 μl of DMSO was added at the end of culture to dissolve the crystals. The signals of individual samples in 96-well plates were detected at O.D.570 nm with Molecular Device SpectraMax Imaging Cytometer. Cell viability was expressed in percentage of viable LPS-stimulated cells.

[1] = target: T1, Toll-like receptor 4 (TLR4) (Homo sapiens, UniProt O00206+Q9Y6Y9); test: NF-κB-inducible SEAP reporter assay of LPS-stimulated TLR4 activity in TLR4-expressing HEK293 cells; assay type: cell-based; settings: for TLR-4 antagonist activity in words (summary of Table 3): 20 μM; for inhibition at 20 µM: compound 20 μM, LPS 10 ng/ml, 16-24 hours incubation, TLR4-expressing HEK293 cells, read-out: TLR-4 inhibition (%) Average
T1 construct: expressed in transfected cells; host or cells: HEK293
Experimental: Stimulation of the Toll-like receptor 4 (TLR4) was determined by assessing activation of the transcription factor NF-κB in HEK293 cells that were engineered to express TLR4. Assessment of TLR4 stimulation was based on the use of an NF-κB-inducible secreted alkaline phosphatase (SEAP) reporter system in which the SEAP reporter was under the control of a promoter inducible by NF-κB. Thus, the degree of activation of TLR4 can be indirectly quantified spectrophotometrically by measuring the amount of the SEAP reporter that is produced.
The TLR4-expressing cells were plated in HEK-Blue Detection (Invivogen, San Diego, Calif.) medium in a 96-well plate (25,000-50,000 cells/well). The cells were stimulated with lipopolysaccharides (LPS) alone or in combination with the compound of example 1. Cell culture without LPS and the compound of example 1 was defined as baseline control. To test whether the compound of example 1 could block that activation of the TLR4, the cells were treated with the compound of example 1 (20 μM) and LPS (final conc. 10 ng/ml/well). After a16-24 hours incubation period at 37° C. in a CO2 incubator, The signals of individual samples in 96-well plates were detected at O.D.650 nm with a Molecular Devices SpectraMax i3 Imaging Cytometer. The TLR4 activity was expressed in percentage of LPS alone-stimulated cells minus baseline control.

T1 sequence (O00206 24-839, species assumed): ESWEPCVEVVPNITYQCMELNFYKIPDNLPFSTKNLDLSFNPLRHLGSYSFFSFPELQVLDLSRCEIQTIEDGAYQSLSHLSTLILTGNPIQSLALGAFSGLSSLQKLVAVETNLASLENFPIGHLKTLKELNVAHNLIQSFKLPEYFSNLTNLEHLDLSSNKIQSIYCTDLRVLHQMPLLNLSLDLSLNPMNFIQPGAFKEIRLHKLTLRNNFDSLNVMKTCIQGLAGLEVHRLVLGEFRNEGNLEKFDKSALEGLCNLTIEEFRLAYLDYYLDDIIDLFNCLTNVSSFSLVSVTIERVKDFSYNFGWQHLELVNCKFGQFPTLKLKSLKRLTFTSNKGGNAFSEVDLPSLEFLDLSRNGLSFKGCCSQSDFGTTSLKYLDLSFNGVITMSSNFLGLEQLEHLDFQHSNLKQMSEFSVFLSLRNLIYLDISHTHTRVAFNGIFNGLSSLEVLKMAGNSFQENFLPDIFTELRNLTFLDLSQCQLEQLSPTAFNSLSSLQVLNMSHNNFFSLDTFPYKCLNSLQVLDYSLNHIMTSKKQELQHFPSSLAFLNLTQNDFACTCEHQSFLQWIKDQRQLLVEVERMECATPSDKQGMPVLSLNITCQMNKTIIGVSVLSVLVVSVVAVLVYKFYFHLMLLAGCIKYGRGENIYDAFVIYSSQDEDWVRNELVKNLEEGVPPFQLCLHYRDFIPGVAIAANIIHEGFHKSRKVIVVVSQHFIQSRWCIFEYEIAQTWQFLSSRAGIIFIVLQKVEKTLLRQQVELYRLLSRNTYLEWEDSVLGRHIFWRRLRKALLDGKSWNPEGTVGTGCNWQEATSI
T1 sequence (Q9Y6Y9 17-160 limits assumed, species assumed): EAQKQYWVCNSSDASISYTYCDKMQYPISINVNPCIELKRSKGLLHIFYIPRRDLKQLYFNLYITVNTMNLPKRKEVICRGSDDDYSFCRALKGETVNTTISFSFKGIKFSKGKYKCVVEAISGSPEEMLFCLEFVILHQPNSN

Row | SMILES | Cell viability (%) Average (HEK293 cells) [%] | TLR-4 antagonist activity in words (summary of Table 3) [1] | inhibition at 20 µM [1] [%]
1 | O=[N+]([O-])c1ccc(N2CC[C@@]34CCCC[C@@H]3[C@@H]2Cc2ccc(O)cc24)cc1 [Compound 3] | 82.1 | weak to negligible activity towards TLR-4 | 0
2 | Nc1ccc(N2CC[C@@]34CCCC[C@@H]3[C@@H]2Cc2ccc(O)cc24)cc1 [Compound 4] | 92.2 | strong antagonists of TLR-4 | 90.5
3 | COc1ccc2c(c1)[C@]13CCCC[C@@H]1[C@H](C2)N(c1ccc([N+](=O)[O-])c(N)c1)CC3 [Compound 5] | 110.9 | weak to negligible activity towards TLR-4 | 13.2
4 | COc1ccc2c(c1)[C@]13CCCC[C@@H]1[C@H](C2)N(c1ccc(N)cc1)CC3 [Compound 6] | 83.1 | moderate to mild inhibitory activity toward TLR-4 | 37.7
5 | CCOC(=O)Nc1ccc(N2CC[C@@]34CCCC[C@@H]3[C@@H]2Cc2ccc(OC)cc24)cc1 [Compound 7] | 79.3 | weak to negligible activity towards TLR-4 | 0
6 | COc1ccc2c(c1)[C@]13CCCC[C@@H]1[C@H](C2)N(c1ccc(NC(=O)CCCc2ccccc2)cc1)CC3 [Compound 8] | 104.7 | weak to negligible activity towards TLR-4 | 6
7 | COc1ccc2c(c1)[C@]13CCCC[C@@H]1[C@H](C2)N(S(=O)(=O)c1ccc([N+](=O)[O-])cc1)CC3 [Compound 9] | 104.1 | moderate to mild inhibitory activity toward TLR-4 | 23.7
8 | COc1ccc2c(c1)[C@]13CCCC[C@@H]1[C@H](C2)N(S(=O)(=O)c1ccc(N)cc1)CC3 [Compound 10] | 111.6 | moderate to mild inhibitory activity toward TLR-4 | 30
9 | COc1ccc2c(c1)[C@]13CCCC[C@@H]1[C@H](C2)N(CC(O)COc1ccccc1)CC3 (stereo partly drawn) [Compound 11] | 88.8 | remarkable inhibitions on TLR-4 | 54.5
10 | COc1ccc2c(c1)[C@]13CCCC[C@@H]1[C@H](C2)N(CC(O)CSc1ccccc1)CC3 (stereo partly drawn) [Compound 12] | 81.3 | remarkable inhibitions on TLR-4 | 59.1
11 | COc1ccc2c(c1)[C@]13CCCC[C@@H]1[C@H](C2)N(CC(O)CN1CCOCC1)CC3 (stereo partly drawn) [Compound 13] | 101.5 | weak to negligible activity towards TLR-4 | 2.8
12 | CC(=O)Nc1ccc(S(=O)(=O)N2CC[C@@]34CCCC[C@@H]3[C@@H]2Cc2ccc(O)cc24)cc1 [Compound 15] | 104.0 | moderate to mild inhibitory activity toward TLR-4 | 45.1
13 | Nc1ccc(S(=O)(=O)N2CC[C@@]34CCCC[C@@H]3[C@@H]2Cc2ccc(O)cc24)cc1 [Compound 16] | 75.5 | moderate to mild inhibitory activity toward TLR-4 | 42.1
14 | Nc1cc(N2CC[C@@]34CCCC[C@@H]3[C@@H]2Cc2ccc(O)cc24)ccc1[N+](=O)[O-] [Compound 17] | 116.0 | remarkable inhibitions on TLR-4 | 53.1
15 | Nc1ccc(N2CC[C@@]34CCCC[C@@H]3[C@@H]2Cc2ccc(O)cc24)cc1N [Compound 18] | 143.0 | remarkable inhibitions on TLR-4 | 57.7
16 | CC(C)N(c1ccc(N2CC[C@@]34CCCC[C@@H]3[C@@H]2Cc2ccc(O)cc24)cc1)C(C)C [Compound 19] | 99.2 | remarkable inhibitions on TLR-4 | 75.3
17 | CC(C)Nc1ccc(N2CC[C@@]34CCCC[C@@H]3[C@@H]2Cc2ccc(O)cc24)cc1 [Compound 20] | 89.9 | strong antagonists of TLR-4 | 99.8
18 | Nc1ccc(N2CC[C@@]34CCCC[C@@H]3[C@@H]2Cc2ccc(O)cc24)c(F)c1 [Compound 21] | 97.4 | weak to negligible activity towards TLR-4 | 13.8
19 | Cc1cc(N2CC[C@@]34CCCC[C@@H]3[C@@H]2Cc2ccc(O)cc24)ccc1N [Compound 22] | 101.7 | remarkable inhibitions on TLR-4 | 64.2
20 | Nc1ccc(N2CC[C@@]34CCCC[C@@H]3[C@@H]2Cc2ccc(O)cc24)c(C(F)(F)F)c1 [Compound 23] | 96.2 | weak to negligible activity towards TLR-4 | 22.9
21 | O=[N+]([O-])c1ccc(N2CC[C@@]34CCCC[C@@H]3[C@@H]2Cc2ccc(O)cc24)nc1 [Compound 24] | 103.3 | moderate to mild inhibitory activity toward TLR-4 | 43.5
22 | Nc1ccc(N2CC[C@@]34CCCC[C@@H]3[C@@H]2Cc2ccc(O)cc24)nc1 [Compound 25] | 100.8 | weak to negligible activity towards TLR-4 | 13.3
